From BindingDB's records for doi:10.1021/jm401056w (Takeda Pharmaceutical, 2013)

Test: Inhibition of human KISS1R expressed in CHO cells assessed as inhibition of KISS1R-mediated cell growth after 3 days by cell counting kit-8 assay

IC50 [µM] | Structure (SMILES)
0.087 | CNC(N)=NCCC[C@H](NC(=O)[C@H](CC(C)C)NC(=O)CNC(=O)[C@H](Cc1ccccc1)NC(=O)[C@H](CO)NC(=O)[C@H](CC(N)=O)NC(=O)[C@H](Cc1c[nH]c2ccccc12)NC(=O)[C@H](CC(N)=O)NC(=O)[C@H](N)Cc1ccc(O)cc1)C(=O)N[C@@H](Cc1ccccc1)C(N)=O
8.51 | CC(C)C[C@H](NC(=O)CNC(=O)[C@H](Cc1ccccc1)NC(=O)[C@H](CO)NC(=O)[C@H](CC(N)=O)NC(=O)[C@H](Cc1c[nH]c2ccccc12)NC(=O)[C@H](CC(N)=O)NC(=O)[C@@H](N)Cc1ccc(O)cc1)C(=O)N[C@@H](CCCN=C(N)N)C(=O)N[C@@H](Cc1ccccc1)C(N)=O [(2S)-2-[(2S)-2-[(2S)-2-[(2S)-2-amino-3-(4-hydroxyphenyl)propanamido]butanediamido]-3-(1H-indol-3-yl)propanamido]-N-[(1S)-1-{[(1S)-1-[({[(1S)-1-{[(1S)-4-carbamimidamido-1-{[(1S)-1-carbamoyl-2-phenylethyl]carbamoyl}butyl]carbamoyl}-3-methylbutyl]carbamoyl}methyl)carbamoyl]-2-phenylethyl]carbamoyl}-2-hydroxyethyl]butanediamide]
